Test results from paper PMC10726354, “Design, Synthesis, and Biological Evaluation of Small-Molecule-Based Radioligands with Improved Pharmacokinetic Properties for Imaging of Programmed Death Ligand 1” (Journal of Medicinal Chemistry, 2023).
Values joined by “and” are separate entries in the source; they are usually repeats but may differ in a detail not shown here. Equal values may be shown once. “Also recorded” adds a separate entry of the source.

Key:
[1] = Kinetic stability in PBS buffer (pH 7.4), radio-HPLC; assay type: physicochemical; details: room temperature, radio-HPLC at 1, 24 and 48 h
Description: The kinetic stability of all ^64Cu-labeled ligands was investigated in PBS buffer solution (pH 7.4) by incubation at room temperature and monitoring with radio-HPLC up to 48 h. […] During the time course, no changes in peak number/shape and retention time were observed, proving the stability of the compounds. […] At the 48 h time point, however, a shoulder appears with a slightly higher retention time (∼7.0 min), indicating minor decomposition (>94% intact radiotracer).
The corresponding radiotracer was labeled with approximately 500 MBq of ^64Cu in 50 μL of HEPES solution (adjusted to pH 4.5), as described above. After successful labeling, 450 μL of PBS solution (pH 7.4) was added, and the incubation was performed (room temperature) at 300 rpm. At each time point (1, 24, and 48 h), an aliquot was withdrawn and injected into the radio-HPLC (PerkinElmer, Massachusetts, United States system C or D, Supporting Information). Evaluation and graphical plotting were performed with OriginPro 9.0.

[2] = Proteolytic stability in human serum, radio-HPLC; assay type: in vitro ADME; details: 37 °C, 1 h
Description: Potential degradation of the ^64Cu-labeled radiotracers by proteolysis was investigated by incubation in human serum at 37 °C for up to 48 h. At three different time points (1, 24, and 48 h), a sample was withdrawn, and serum proteins were precipitated. The radio-HPLC chromatograms of all ^64Cu-labeled radiotracers (Figure S111A–D, system D) show a major peak at ∼6.4–6.7 min indicating the radiotracers. After 1 h, the radiotracers [^64Cu]Cu-3–6 are 94.1, 98.3, 94.0, and 96.3% intact, respectively.
Similar to PBS stability studies, the mixture containing the radiolabeled compound was diluted 1:10 with human serum. The solution was incubated at 37 °C with shaking at 300 rpm. At each time point (1, 24, and 48 h), an aliquot was withdrawn and added to a double amount of “supersol” (water containing 20% v/v EtOH, 5% v/v 5 mM aqueous EDTA, 0.5% v/v Triton X-100, 0.1% m/v saponin, 0.05% v/v 0.5 mM aqueous o-phenanthroline) to precipitate serum proteins. The suspension was cooled on ice for 5 min and then centrifugated for 5 min at 12,000g. A small amount of the supernatant was analyzed by radio-HPLC (PerkinElmer, Massachusetts, United States system D, Supporting Information). Evaluation and graphical plotting were performed with OriginPro 9.0.

[3] = tested on: PC3 PD-L1-overexpressing tumor; experiment: Small-animal PET, uptake in PD-L1-overexpressing tumor; details: for SUVmax PC3 PD-L1 overexpressing tumor: tracer only; for SUVmax PC3 PD-L1 overexpressing tumor +block: blocker i.v. before tracer: Cu-1 100 nmol 1, Cu-2 100 nmol 2, Cu-3 1000 nmol 4, Cu-4 500 nmol 4, Cu-6 250 nmol 1 (~5 min prior), Cu-5 100 nmol 5 (~30 min prior)
Description: (§1) Changes are reported as % change of the SUVmax of the PD-L1 expressing over the respective value of the mock tumor. Similarly, the effect of blocking is reported as % change of the SUVmax of the animal injected with cold compound over that of the animal that received tracer only.
(§2) Animal experiments were performed in accordance with the guidelines of the German Regulations for Animal Welfare, approved by the Saxonian Ethical Committee for Animal Experiments (reference number DD24.1-5131/449/49). Male athymic NMRI-nude mice (Rj: NMRI-Foxn1^nu/nu, Janvier Laboratories, Le Genest-Saint-Isle, France) between 8 and 22 weeks of age were used. Under general anesthesia, [∼10% desflurane (Baxter, Deerfield, IL, USA) in 30 vol % oxygen + air] and warming, the animals were subcutaneously injected with 3–5 × 10^6 PC3-PD-L1 and PC3-mock cells [in 50 μL PBS +50 μL Matrigel (Corning, Glendale, USA)] into the right and left thigh, respectively. Tumor growth was monitored three times a week by caliper measurements, and mice with tumor sizes above 7 mm were included in the experiments.
(§3) For PET studies, general anesthesia was induced as described above. PET and X-ray computed tomography (CT) were performed in a dedicated small animal nanoScan PET/CT scanner, with four animals imaged simultaneously (Mediso, Budapest, Hungary). CT images were employed for attenuation correction and anatomical referencing. Animals received three individual scans corresponding to 0–2 h (dynamic) and 4.5 and 24 h (static) postinjection.
(§4) PD-L1 radiotracer candidates (in 300 μL sterile 0.9% NaCl/HEPES buffer, pH 6–7, between 7 and 12 MBq, molar activities > 12 GBq/μmol) were delivered over 30 s i.v. (lateral tail vein) and PET acquisition started simultaneously. For blocking condition, a defined quantity of compound (the same unlabeled compound, one from the same series or BMS-1166) was diluted in sterile saline and injected i.v. approximately 5 min prior to the radiotracer. Animals not subjected to blocking were injected with vehicle at the same time.
(§5) Three-dimensional list mode data were binned using the 400–600 keV energy window and sorted into 36 time frames (15 × 10 s, 5 × 30 s, 5 × 60 s, 4 × 300 s, 3 × 600 s, 4 × 900 s). Time frames were reconstructed using the Tera-TomoTM 3D algorithm applying a voxel size of 0.4 mm and corrections for decay, scatter, and attenuation.
(§6) Three-dimensional volumes of interest were delineated applying fixed thresholding at 35% of the measured maximum intensity. Standardized uptake values (SUV = [MBq detected activity/mL tissue]/[MBq injected activity/g body weight], […]) were determined in selected volumes of interest, among these PD-L1 and mock tumors.
(§7) 14. In vivo: PET- SUV data
(§8) Standardized uptake values (SUVmax)
(§9) Supplementary table 1: In vivo standardized uptake values (SUVmax ± standard deviation) of 64Cu-labeled third series compounds [64Cu]Cu-1-6 at 1.5 (1–2), 4.5 (4–5) and 24.5 (24–25) hours
(§10) post injection (p.i.). Compounds used for blocking are described for each tracer and were intravenously injected in sterile saline at stated time before the radiotracer. Animals designated for
(§11) tracer-only received matched type and volume of vehicle at the same time.

[4] = tested on: PC3 mock tumor; experiment: Small-animal PET, uptake in mock tumor; details: for SUVmax PC3 mock tumor: tracer only; for SUVmax PC3 mock tumor +block: blocker i.v. before tracer: Cu-1 100 nmol 1, Cu-2 100 nmol 2, Cu-3 1000 nmol 4, Cu-4 500 nmol 4, Cu-6 250 nmol 1 (~5 min prior), Cu-5 100 nmol 5 (~30 min prior)
Description: as §1, §2, §3, §4, §5, §6, §7, §8, §9, §10, §11

[5] = Small-animal PET, excretion pattern; assay type: in vivo, mouse; details: PET 0–2, 4–5 and 24–25 h p.i., i.v.
Description: Time points of PET imaging were 0–2, 4–5, and 24–25 h post injection (p.i.).

[6] = 1–2 h (1.5 h) p.i., blocker: Cu-3 1000 nmol 4, Cu-4 500/1000 nmol 4, Cu-5 100 nmol 5, Cu-6 250 nmol BMS-1166
[7] = 4–5 h (4.5 h) p.i., blocker: Cu-3 1000 nmol 4, Cu-4 500/1000 nmol 4, Cu-5 100 nmol 5, Cu-6 250 nmol BMS-1166
[8] = 24–25 h (24.5 h) p.i., blocker: Cu-1, Cu-2 100 nmol unlabeled compound, Cu-3 1000 nmol 4, Cu-4 500/1000 nmol 4, Cu-5 100 nmol 5, Cu-6 250 nmol BMS-1166

SMILES	intact radioligand in PBS (pH 7.4) [1]	intact radiotracer in human serum after 1 h [2]	blocking effect: % change of SUVmax in PD-L1 tumor vs tracer-only [3, 6]	% change of SUVmax of the PD-L1 expressing tumor over the mock tumor ([3]; 1–2 h p.i.)	SUVmax PC3 PD-L1 overexpressing tumor ([3]; 1.5 (1–2) hours p.i.)	SUVmax PC3 PD-L1 overexpressing tumor +block ([3]; 1.5 (1–2) hours p.i.)	blocking effect: % change of SUVmax in PD-L1 tumor vs tracer-only [3, 7]	% change of SUVmax of the PD-L1 expressing tumor over the mock tumor ([3]; 4–5 h p.i.)	SUVmax PC3 PD-L1 overexpressing tumor ([3]; 4.5 (4–5) hours p.i.)	SUVmax PC3 PD-L1 overexpressing tumor +block ([3]; 4.5 (4–5) hours p.i.)	blocking effect: % change of SUVmax in PD-L1 tumor vs tracer-only [3, 8]	% change of SUVmax of the PD-L1 expressing tumor over the mock tumor ([3]; 24–25 h p.i.)	SUVmax PC3 PD-L1 overexpressing tumor ([3]; 24.5 (24–25) hours p.i.)	SUVmax PC3 PD-L1 overexpressing tumor +block ([3]; 24.5 (24–25) hours p.i.)	SUVmax PC3 mock tumor ([4]; 1.5 (1–2) hours p.i.)	SUVmax PC3 mock tumor +block ([4]; 1.5 (1–2) hours p.i.)	SUVmax PC3 mock tumor ([4]; 4.5 (4–5) hours p.i.)	SUVmax PC3 mock tumor +block ([4]; 4.5 (4–5) hours p.i.)	SUVmax PC3 mock tumor ([4]; 24.5 (24–25) hours p.i.)	SUVmax PC3 mock tumor +block ([4]; 24.5 (24–25) hours p.i.)	also measured
Cc1c(COc2cc(OCc3cncc(S(C)(=O)=O)c3)c(CN[C@@H](CS(=O)(=O)O)C(=O)NCCS(=O)(=O)O)cc2Cl)cccc1-c1cccc(OCc2cn(CCCN3CCN(C(=O)[C@H](CS(=O)(=O)O)NC(=O)CC[C@H](C(=O)O)N4CCN(CC(=O)O)CCN(CC(=O)O)CC4)CC3)nn2)c1C.[64Cu+2] [[^64Cu]Cu-3]	> 99%	94.1%	−71%	311%	3.5	1.0 ± 0.1	−73%	372%	2.6 ± 0.1	0.7 ± 0.3	−52%	93%	1.35	0.65 ± 0.05	0.85 ± 0.05	0.80 ± 0.1	0.55 ± 0.15	0.55 ± 0.05	0.7 ± 0.2	0.45 ± 0.05	SUVmax PC3 PD-L1 overexpressing tumor ([3]; 1.5 (1–2) hours p.i., listed as [64Cu]Cu-3): 3.5 ± 0.2; SUVmax PC3 PD-L1 overexpressing tumor ([3]; 24.5 (24–25) hours p.i., listed as [64Cu]Cu-3): 1.35 ± 0.15; blocking effect of BMS-1166 on SUVmax / tumor uptake ([3]; any time point, Cu-3: 750 nmol BMS-1166 intraperitoneally 60 min prior, Cu-6: 250 nmol BMS-1166 5 min before): no effect; blocking effect in the mock tumor ([4]; 1–2 and 4–5 h p.i., 1000 nmol unlabeled compound 4): negligible; blocking effect on SUVmax in the mock tumor ([4]; 24–25 h p.i., blocker: Cu-1, Cu-2 100 nmol unlabeled compound, Cu-3 1000 nmol 4): 36%; excretion / clearance pattern (PET) [5]: predominantly a fast renal and lower hepatobiliary clearance
Cc1c(COc2cc(OCc3cncc(S(C)(=O)=O)c3)c(CN[C@@H](CS(=O)(=O)O)C(=O)NCCP(=O)(O)O)cc2Cl)cccc1-c1cccc(OCc2cn(CCCN3CCN(C(=O)CC[C@H](C(=O)O)N4CCN(CC(=O)O)CCN(CC(=O)O)CC4)CC3)nn2)c1C.[64Cu+2] [[^64Cu]Cu-4]	> 99%	98.3%	−57%	146%	1.97 ± 0.23	0.85 ± 0.05	−13% and −12%	166%	1.2 ± 0.4	1.05 ± 0.35	−45%	60%	2.0 ± 0.1	1.1 ± 0.1	0.8 ± 0.10	0.65 ± 0.05	0.45 ± 0.05	0.6 ± 0.2	1.25 ± 0.15	0.8 ± 0.3	excretion / clearance pattern (PET) [5]: almost exclusive hepatobiliary elimination; also recorded: primarily hepatobiliary clearance
